Read-outs that look alike come from different tables or passages of the source.
Experiments:
[1] = test system: H3K27me3 mark in HeLa cells (EZH2); test: H3K27me3 Alpha Hela Assay (AlphaLISA); format: cell-based; details: HeLa cells, 72 hrs, read-out: EZH2 Cell H3K27me3 Alpha HeLa (EC50 K27me3)
Method in brief: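 HeLa cells (1,000/well) treated with ten 3-fold compound doses for 72 h at 37 °C; lysates extracted and H3K27me3 detected by AlphaLISA with anti-K27me3 acceptor beads, biotinylated anti-H3 (3 nM) and streptavidin donor beads. EC50 from DMSO-normalized dose-response curves; duplicate plate assessed viability.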

PRC2 containing wt EZH2 = PRC2 containing wt EZH2 (Homo sapiens (Human), UniProt Q15910); test: EZH2 biochemical assay (IC50), 3H-SAM incorporation into biotinylated H3 peptide
Method in brief: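 The PRC2 pentamer with wt EZH2 (30 pM) was pre-incubated for 3-5 h with 450 nM SAM plus 450 nM ³H-SAM, 2 µM H3K27me3 activating peptide and compound (0.8% DMSO) in Tris at pH 8.5. Biotinylated H3K27me1 peptide was added and the reaction ran 18-22 h at RT. Incorporated ³H was captured on streptavidin plates, and IC50 was taken from a four-parameter fit.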

[2] = EZH2 (IC50), 30 pM PRC2 containing wt EZH2; 3-5 h pre-incubation
[3] = 30 pM PRC2 containing wt EZH2; 3-5 h pre-incubation; read-out: EZH2 (IC50)
[4] = read-out: EZH2 (IC50); 30 pM PRC2 containing wt EZH2; 3-5 h pre-incubation

Chain of PRC2 containing wt EZH2 (Q15910 whole entry): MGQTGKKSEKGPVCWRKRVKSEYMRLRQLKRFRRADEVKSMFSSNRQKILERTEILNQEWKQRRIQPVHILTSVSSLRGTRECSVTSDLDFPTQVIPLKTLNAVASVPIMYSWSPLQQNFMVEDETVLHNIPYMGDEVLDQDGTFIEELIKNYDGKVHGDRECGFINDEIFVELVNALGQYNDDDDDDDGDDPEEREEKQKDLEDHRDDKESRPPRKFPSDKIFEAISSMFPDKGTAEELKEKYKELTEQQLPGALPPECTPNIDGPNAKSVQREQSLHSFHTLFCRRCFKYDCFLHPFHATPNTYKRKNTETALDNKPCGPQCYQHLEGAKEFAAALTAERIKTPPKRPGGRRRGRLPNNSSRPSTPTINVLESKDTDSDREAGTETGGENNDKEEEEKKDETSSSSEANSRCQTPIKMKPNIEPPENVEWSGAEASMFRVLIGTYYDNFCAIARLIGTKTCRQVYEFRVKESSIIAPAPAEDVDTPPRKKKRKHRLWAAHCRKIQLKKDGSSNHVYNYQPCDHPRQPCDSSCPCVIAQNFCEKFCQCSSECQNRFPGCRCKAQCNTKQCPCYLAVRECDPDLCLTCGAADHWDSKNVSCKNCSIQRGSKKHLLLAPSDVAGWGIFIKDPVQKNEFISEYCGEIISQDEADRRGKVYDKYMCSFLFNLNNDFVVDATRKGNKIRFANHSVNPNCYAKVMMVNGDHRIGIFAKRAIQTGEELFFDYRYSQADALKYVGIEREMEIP
Chain of PRC2 containing wt EZH2 (O75530 whole entry partner): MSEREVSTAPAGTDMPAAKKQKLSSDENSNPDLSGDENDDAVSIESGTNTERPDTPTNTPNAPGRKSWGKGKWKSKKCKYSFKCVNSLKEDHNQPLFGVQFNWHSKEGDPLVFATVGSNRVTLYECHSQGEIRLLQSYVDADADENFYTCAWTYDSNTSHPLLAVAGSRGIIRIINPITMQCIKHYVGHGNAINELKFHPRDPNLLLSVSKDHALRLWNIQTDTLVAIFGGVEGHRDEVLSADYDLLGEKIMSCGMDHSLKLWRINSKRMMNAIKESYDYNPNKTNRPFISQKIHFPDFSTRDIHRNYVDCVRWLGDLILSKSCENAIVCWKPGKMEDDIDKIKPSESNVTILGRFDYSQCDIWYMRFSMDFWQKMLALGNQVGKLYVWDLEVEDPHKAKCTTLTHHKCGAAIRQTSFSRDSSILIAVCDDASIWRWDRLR
Chain of PRC2 containing wt EZH2 (Q15022 whole entry partner): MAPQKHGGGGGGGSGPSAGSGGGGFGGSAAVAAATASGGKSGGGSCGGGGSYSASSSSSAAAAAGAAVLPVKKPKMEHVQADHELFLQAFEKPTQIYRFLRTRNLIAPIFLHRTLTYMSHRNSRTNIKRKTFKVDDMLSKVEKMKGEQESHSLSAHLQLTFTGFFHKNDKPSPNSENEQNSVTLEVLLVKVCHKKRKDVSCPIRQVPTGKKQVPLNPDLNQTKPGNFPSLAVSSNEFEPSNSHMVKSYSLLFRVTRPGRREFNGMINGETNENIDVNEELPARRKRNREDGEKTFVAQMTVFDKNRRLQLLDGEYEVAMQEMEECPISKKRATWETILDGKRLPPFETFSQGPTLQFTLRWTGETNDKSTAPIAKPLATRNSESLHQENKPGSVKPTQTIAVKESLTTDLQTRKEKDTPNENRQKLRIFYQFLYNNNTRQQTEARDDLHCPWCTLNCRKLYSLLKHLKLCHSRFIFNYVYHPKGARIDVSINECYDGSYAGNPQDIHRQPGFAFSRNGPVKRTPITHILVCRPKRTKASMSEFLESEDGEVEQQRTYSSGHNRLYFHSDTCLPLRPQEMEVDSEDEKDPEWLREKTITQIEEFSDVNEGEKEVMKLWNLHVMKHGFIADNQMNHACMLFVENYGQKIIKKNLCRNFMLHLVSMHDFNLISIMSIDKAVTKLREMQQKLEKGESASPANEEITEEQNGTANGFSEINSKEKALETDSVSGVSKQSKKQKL
Chain of PRC2 containing wt EZH2 (Q09028 whole entry partner): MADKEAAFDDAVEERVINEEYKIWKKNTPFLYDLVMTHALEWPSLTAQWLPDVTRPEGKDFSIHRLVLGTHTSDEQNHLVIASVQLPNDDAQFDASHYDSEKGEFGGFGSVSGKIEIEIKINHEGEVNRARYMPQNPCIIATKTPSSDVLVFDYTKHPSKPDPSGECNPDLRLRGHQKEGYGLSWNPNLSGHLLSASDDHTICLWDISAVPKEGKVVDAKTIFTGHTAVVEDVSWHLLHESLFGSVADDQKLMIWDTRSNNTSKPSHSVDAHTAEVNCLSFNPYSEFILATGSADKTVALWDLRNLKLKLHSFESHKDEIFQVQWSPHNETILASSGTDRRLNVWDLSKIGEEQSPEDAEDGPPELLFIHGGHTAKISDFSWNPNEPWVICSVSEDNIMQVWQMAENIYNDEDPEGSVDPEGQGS
Chain of PRC2 containing wt EZH2 (Q6ZN18 whole entry partner): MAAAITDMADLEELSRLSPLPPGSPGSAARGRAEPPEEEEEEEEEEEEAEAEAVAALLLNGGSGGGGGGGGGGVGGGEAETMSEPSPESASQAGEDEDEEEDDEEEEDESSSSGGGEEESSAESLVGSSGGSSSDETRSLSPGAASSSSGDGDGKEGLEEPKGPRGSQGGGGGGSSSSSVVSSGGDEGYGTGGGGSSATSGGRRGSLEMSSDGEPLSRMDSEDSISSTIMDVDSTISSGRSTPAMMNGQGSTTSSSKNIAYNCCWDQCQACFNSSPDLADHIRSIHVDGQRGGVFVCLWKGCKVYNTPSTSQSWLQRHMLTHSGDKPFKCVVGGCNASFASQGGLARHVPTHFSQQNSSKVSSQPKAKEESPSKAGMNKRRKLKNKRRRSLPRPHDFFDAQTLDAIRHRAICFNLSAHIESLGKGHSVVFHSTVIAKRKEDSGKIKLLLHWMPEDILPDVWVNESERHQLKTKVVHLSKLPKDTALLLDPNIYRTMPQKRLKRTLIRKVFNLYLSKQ

Row | Compound | EC50 ([1]; Homo sapiens, HeLa, 72 h) [nM] | IC50 (PRC2 containing wt EZH2; [2]) [nM] | IC50 (PRC2 containing wt EZH2; [3]) [nM] | EC50 [1] [nM] | IC50 (PRC2 containing wt EZH2; [4]) [nM]
1 | CSc1cc(C)[nH]c(=O)c1CNC(=O)c1c(C)n([C@H](C)[C@H]2CCN(C)C[C@@H]2F)c2ccccc12 [Example 42, 1-((R)-1-((3R,4R)-3-fluoro-1-methylpiperidin-4-yl)ethyl)-2-methyl-N-((6-methyl-4-(methylthio)-2-oxo-1,2-dihydropyridin-3-yl)methyl)-1H-indole-3-carboxamide] | < 10 | < 0.5 |  |  | 
2 | CSc1cc(C)[nH]c(=O)c1CNC(=O)c1c(C)n([C@H](C)C2CCN(C3CC3)CC2)c2ncncc12 [Example 50, (R)-7-(1-(1-cyclopropylpiperidin-4-yl)ethyl)-6-methyl-N-((6-methyl-4-(methylthio)-2-oxo-1,2-dihydropyridin-3-yl)methyl)-7H-pyrrolo[2,3-d]pyrimidine-5-carboxamide] | < 10 | < 0.5 |  |  | 
3 | CSc1cc(C)[nH]c(=O)c1CNC(=O)c1c(C)n([C@H](C)C2CCN(CCC(F)(F)F)CC2)c2ccccc12 [Example 88, (R)-2-methyl-N-((6-methyl-4-(methylthio)-2-oxo-1,2-dihydropyridin-3-yl)methyl)-1-(1-(1-(3,3,3-trifluoropropyl)piperidin-4-yl)ethyl)-1H-indole-3-carboxamide] | 10 to 100 | < 0.5 |  |  | 
4 | CSc1cc(C)[nH]c(=O)c1CNC(=O)c1c(C)n([C@H](C)c2cnc(C)nc2)c2ccccc12 [Example 35, (R)-2-methyl-N-((6-methyl-4-(methylthio)-2-oxo-1,2-dihydropyridin-3-yl)methyl)-1-(1-(2-methylpyrimidin-5-yl)ethyl)-1H-indole-3-carboxamide] | > 100 |  | > 5 |  | 
5 | CSc1cc(C)[nH]c(=O)c1CNC(=O)c1c(C)n([C@H](C)C2CN(CC(F)(F)F)C2)c2ccccc12 [Example 54, (R)-2-methyl-N-((6-methyl-4-(methylthio)-2-oxo-1,2-dihydropyridin-3-yl)methyl)-1-(1-(1-(2,2,2-trifluoroethyl)azetidin-3-yl)ethyl)-1H-indole-3-carboxamide] | 10 to 100 | 0.5 to 5 |  |  | 
6 | CSc1cc(C)[nH]c(=O)c1CNC(=O)c1c(C)n([C@H](C)C2CCN(CC(F)(F)F)CC2)c2cc(Br)ccc12 [Example 127, (R)-6-bromo-2-methyl-N-((6-methyl-4-(methylthio)-2-oxo-1,2-dihydropyridin-3-yl)methyl)-1-(1-(1-(2,2,2-trifluoroethyl)piperidin-4-yl)ethyl)-1H-indole-3-carboxamide] | 10 to 100 | < 0.5 |  |  | 
7 | CSc1cc(C)[nH]c(=O)c1CNC(=O)c1c(C)n([C@H](C)C2CCC(O)CC2)c2cc(F)ccc12 (single isomer, unassigned) [44 (isomer 2)] |  |  |  | < 10 | < 0.5
8 | CSc1cc(C)[nH]c(=O)c1CNC(=O)c1c(C)n([C@H](C)C2CCN(C3CC3)CC2)c2ncc(Cl)cc12 [Example 69, (R)-5-chloro-1-(1-(1-cyclopropylpiperidin-4-yl)ethyl)-2-methyl-N-((6-methyl-4-(methylthio)-2-oxo-1,2-dihydropyridin-3-yl)methyl)-1H-pyrrolo[2,3-b]pyridine-3-carboxamide] | < 10 | < 0.5 |  |  | 
9 | CSc1cc(C)[nH]c(=O)c1CNC(=O)c1c(C)n([C@H](C)C2CCC(OC(F)F)CC2)c2ccccc12 (single isomer, unassigned) [60 (isomer 2)] |  |  |  | < 10 | < 0.5
10 | CSc1cc(C)[nH]c(=O)c1CNC(=O)c1c(C)n([C@H](C)[C@@H]2CCN(C3CC3)CC2(F)F)c2ncccc12 (single isomer, unassigned) [70 (isomer 2)] | > 100 | 0.5 to 5 |  |  | 
11 | CSc1cc(C)[nH]c(=O)c1CNC(=O)c1c(C)n([C@H](C)C2CCC(N3CC(C)(F)C3)CC2)c2ncccc12 (stereo partly drawn) [Example 80, 1-((R)-1-(4-(3-fluoro-3-methylazetidin-1-yl)cyclohexyl)ethyl)-2-methyl-N-((6-methyl-4-(methylthio)-2-oxo-1,2-dihydropyridin-3-yl)methyl)-1H-pyrrolo[2,3-b]pyridine-3-carboxamide] | 10 to 100 | < 0.5 |  |  | 
12 | COC1CN(C2CCC([C@@H](C)n3c(C)c(C(=O)NCc4c(SC)cc(C)[nH]c4=O)c4cccnc43)CC2)C1 (single isomer, unassigned) [76 (isomer 2)] |  | 0.5 to 5 |  | > 100 | 
13 | CSc1cc(C)[nH]c(=O)c1CNC(=O)c1c(C)n([C@H](C)C2CCC(OC3CN(C)C3)CC2)c2ncccc12 (single isomer, unassigned) [145 (isomer 1)] | > 100 | 0.5 to 5 |  |  | 
14 | CSc1cc(C)[nH]c(=O)c1CNC(=O)c1c(C)n([C@H](C)C2CCC(N3CC[C@@H](F)C3)CC2)c2ncc(Cl)cc12 (stereo partly drawn) [Example 107, 5-chloro-1-((R)-1-(4-((R)-3-fluoropyrrolidin-1-yl)cyclohexyl)ethyl)-2-methyl-N-((6-methyl-4-(methylthio)-2-oxo-1,2-dihydropyridin-3-yl)methyl)-1H-pyrrolo[2,3-b]pyridine-3-carboxamide] | 10 to 100 |  | < 0.5 |  | 
15 | CSc1cc(C)[nH]c(=O)c1CNC(=O)c1c(C)n([C@H](C)C2CCC(OC3COC3)CC2)c2ccccc12 (single isomer, unassigned) [137 (isomer 1)] | < 10 | < 0.5 |  |  | 
16 | CSc1cc(C)[nH]c(=O)c1CNC(=O)c1c(C)n([C@H](C)C2CCC(N3CC(F)C3)CC2)c2c(F)cccc12 (stereo partly drawn) [Example 82, 7-fluoro-1-((R)-1-(4-(3-fluoroazetidin-1-yl)cyclohexyl)ethyl)-2-methyl-N-((6-methyl-4-(methylthio)-2-oxo-1,2-dihydropyridin-3-yl)methyl)-1H-indole-3-carboxamide] | < 10 | < 0.5 |  |  | 
17 | Cc1cc(SC2CCC2)c(CNC(=O)c2c(C)n([C@H](C)C3CCN(CC(F)(F)F)CC3)c3ccccc23)c(=O)[nH]1 [Example 109, (R)-N-((4-(cyclobutylthio)-6-methyl-2-oxo-1,2-dihydropyridin-3-yl)methyl)-2-methyl-1-(1-(1-(2,2,2-trifluoroethyl)piperidin-4-yl)ethyl)-1H-indole-3-carboxamide] | 10 to 100 |  | < 0.5 |  | 
18 | CSc1cc(C)[nH]c(=O)c1CNC(=O)c1c(C)n([C@H](C)C2CCC(N3CC(OC4CC4)C3)CC2)c2ncc(F)cc12 (single isomer, unassigned) [28 (isomer 2)] |  |  | < 0.5 | 10 to 100 | 
19 | CSc1cc(C)[nH]c(=O)c1CNC(=O)c1c(C)n([C@H](C)C2CC(NC3COC3)C2)c2ccccc12 (stereo partly drawn) [Example 49, 2-methyl-N-((6-methyl-4-(methylthio)-2-oxo-1,2-dihydropyridin-3-yl)methyl)-1-((R)-1-(3-(oxetan-3-ylamino)cyclobutyl)ethyl)-1H-indole-3-carboxamide] | > 100 |  | 0.5 to 5 |  | 
20 | CSc1cc(C)[nH]c(=O)c1CNC(=O)c1c(C)n([C@H](C)C2CCC(N3CC(S(C)(=O)=O)C3)CC2)c2ccccc12 (single isomer, unassigned) [162 (isomer 2)] |  |  | 0.5 to 5 | > 100 | 
21 | CSc1cc(C)[nH]c(=O)c1CNC(=O)c1c(C)n([C@H](C)C2CCC(NCC(F)(F)F)CC2)c2ncncc12 (stereo partly drawn) [Example 89, 6-methyl-N-((6-methyl-4-(methylthio)-2-oxo-1,2-dihydropyridin-3-yl)methyl)-7-((R)-1-(4-((2,2,2-trifluoroethyl)amino)cyclohexyl)ethyl)-7H-pyrrolo[2,3-d]pyrimidine-5-carboxamide] | 10 to 100 |  | < 0.5 |  | 
22 | COC1CCC([C@@H](C)n2c(C)c(C(=O)NCc3c(SC)cc(C)[nH]c3=O)c3cncnc32)CC1 (single isomer, unassigned) [41 (isomer 2)] |  |  |  | < 10 | < 0.5
23 | CSc1cc(C)[nH]c(=O)c1CNC(=O)c1c(C)n([C@H](C)C2CCN(C3CC(F)(F)C3)CC2)c2ccccc12 [Example 81, (R)-1-(1-(1-(3,3-difluorocyclobutyl)piperidin-4-yl)ethyl)-2-methyl-N-((6-methyl-4-(methylthio)-2-oxo-1,2-dihydropyridin-3-yl)methyl)-1H-indole-3-carboxamide] | 10 to 100 | < 0.5 |  |  | 
24 | CSc1cc(C)[nH]c(=O)c1CNC(=O)c1c(C)n([C@H](C)C2CCC(N3CC(F)C3)CC2)c2ncc(F)cc12 (single isomer, unassigned) [84 (isomer 1)] | < 10 | < 0.5 |  |  | 
25 | CSc1cc(C)[nH]c(=O)c1CNC(=O)c1c(C)n([C@H](C)[C@H]2CCNC[C@@H]2F)c2ccccc12 [Example 37, 1-((R)-1-((3R,4R)-3-fluoropiperidin-4-yl)ethyl)-2-methyl-N-((6-methyl-4-(methylthio)-2-oxo-1,2-dihydropyridin-3-yl)methyl)-1H-indole-3-carboxamide] | 10 to 100 | < 0.5 |  |  | 
26 | CSc1cc(C)[nH]c(=O)c1CNC(=O)c1c(C)n([C@H](C)C2CCC(N3CC(OC(C)(C)C)C3)CC2)c2ncccc12 (single isomer, unassigned) [112 (isomer 2)] |  |  | < 0.5 | 10 to 100 | 
27 | CSc1cc(C)[nH]c(=O)c1CNC(=O)c1c(C)n([C@@H](C)[C@H]2OC[C@@H](N3CCC34COC4)CO2)c2ccccc12 (single isomer, unassigned; isomer 1) [151 (isomer 1)] |  |  | 0.5 to 5 | > 100 | 

Reference: patent publication US11459315B2, “Modulators of methyl modifying enzymes, compositions and uses thereof” (Constellation Pharmaceuticals, Inc., priority 2017, dated 2022)
